Data taken from US6340588B1, “Matrices with memories” (Discovery Partners International, Inc., priority 1995, dated 2002).

Target: 125I-streptavidin (Streptomyces avidinii, UniProt P22629)
Sequence (P22629 25-183): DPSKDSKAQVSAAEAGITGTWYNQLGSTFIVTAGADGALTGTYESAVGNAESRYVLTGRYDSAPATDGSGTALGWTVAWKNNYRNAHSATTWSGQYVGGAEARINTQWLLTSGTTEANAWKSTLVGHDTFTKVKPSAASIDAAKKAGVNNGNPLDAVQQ

O=C1NCC(C(=O)O)N1 (stereo not shown) [2-imidazolidone-4-carboxylic acid]
signal in scintillation proximity assay (binding to 125I-streptavidin): lower signal
